Values joined by “and” are separate entries in the source; they are usually repeats but may differ in a detail not shown here. Equal entries are not always repeated.
Tests used:
[1] = tested on: Vencobb 400 breed of broiler chicken; assay: Pilot study in chicks: cage side observations; format: in vivo
Method: Cage side observations like daily life behavior patterns, odor of litter etc. were recorded.

[2] = tested on: Vencobb 400 breed of broiler chicken; assay: Pilot study in chicks: body weight; format: in vivo; conditions: Treatment group
Method: (§1) A pilot study in 5605 chicks to evaluate the role of Menaquinone-n in bird weight increase, FCR and cost efficiency. The chicks were divided into Treatment group (N=2839) and Control group (N=2766). Menaquinone-7 (provided by Synergia Life Sciences as a 2000 ppm water dispersible powder) was administered to the treatment group for 30 days as per dosage outlined in Table 1. The birds were acclimatized for initial 4 days. Menaquinone-7 in divided doses was started on day 5 till day 30 and they were vaccinated on day 6.
(§2) 5605 day old chicks were selected for the study. They were divided into Treatment group consisting of 2839 chicks, while the remaining 2766 were included in the Control group. The chicks were acclimatized for initial 4 days.
(§3) Menaquinone-7 (provided by Synergia Life Sciences as a 2000 ppm water dispersible powder) was administered daily […] to the treatment group in daily dosages as outlined in Table 1. Menaquinone-7 in divided doses was started on day 5 till day 30 and the chicks were vaccinated on day 6. The body weight of the chicks was determined, and mortality rate observed on Day 11, Day 16, Day 22 and Day 28.
(§4) A poultry farm with two open shades was selected for the study. Vencobb 400 breed of broiler chicken were selected for the study. Vencobb 400 breed was selected because at breeder level it is an early maturing bird with early peak, sustained production and better feed efficiency. Vencobb 400 is known for its proven adaptability to varied climatic conditions and husbandry practices.
(§5) The chicks were housed in poultry sheds with tin rooting and open shade sides. Water was fed ad libitum through bell water feeders. The litter consisted of rice husk before housing the birds the cages were sanitized with hypo chloride, The chicks were provided with feed supplied from Godrej Tyson Foods, ad libitum.
(§6) Menaquinone 7 supplementation was in a drinking water as in Table 1. Water was made up to the required level as required daily.
Body weight was estimated by catching 5 birds in each group and determining the total weight and reporting the average at the intervals recorded in Table 2. At the end of treatment, after catching the total catching weight was recorded and the average weight determined.

[3] = regular MK-7 intake; cited from earlier work
[4] = tested on: Birds; assay: Comparative study of control and treated group (Table 4): mortality, weight, FCR; format: in vivo; conditions: Treated group, 2000 birds, K2 supplementation 15 g of 2000 ppm
Method: Feed conversion ratio was calculated by taking the total amount of feed consumed by the bird and dividing it by the amount of weight gained.

[5] = tested on: Vencobb 400 breed of broiler chicken; assay: Pilot study in chicks: mortality; format: in vivo; conditions: for Cumulative Mortality: Treatment group (N=2839)
Method: as §1, §2, §3, §4, §5, §6

CC(C)=CCC/C(C)=C/CC/C(C)=C/CC/C(C)=C/CC/C(C)=C/CC/C(C)=C/CC/C(C)=C/CC1=C(C)C(=O)c2ccccc2C1=O [Menaquinone-7]
Ammonia odor in the litter (cage side observation) ([1]; Treatment group as compared to the control group): reduced ammonia odor
Stress due to heat, vaccination and crowding (cage side observation) ([1]; Treatment group in comparison to the control group): appeared comfortable
Average weight (kg) per chick ([2]; Day 0 (before dosing; dosing day 5 to day 30 in drinking water)): 0.05 kg
Average weight (kg) per chick ([2]; Day 5 (start of dosing)): 0.05 kg
Average weight (kg) per chick ([2]; Day 11): 0.622 kg
Average weight (kg) per chick ([2]; Day 16): 0.966 kg
Average weight (kg) per chick ([2]; Day 22): 1.36 kg
Average weight (kg) per chick ([2]; Day 28): 2 kg and 2.0 kg
Blood levels, times higher than when not regularly taken [3]: 7-8 times
Avg wt./bird [4]: 2.1560 kg
FCR [4]: 0.728
Mortality [4]: 1.8%
Cumulative Mortality ([5]; Day 0): 0
Cumulative Mortality ([5]; Day 5 (start of dosing)): 30
Cumulative Mortality ([5]; Day 11): 61
Cumulative Mortality ([5]; Day 16): 87
Cumulative Mortality ([5]; Day 22): 95
Cumulative Mortality ([5]; Day 28): 100
Overall reduction in mortality rate ([5]; Treatment group versus control group, end of 28th day): over 4%
Mortality rate/day ([5]; Treatment group, Day 5 (start of dosing)): 7.5 per day
Mortality rate/day ([5]; Treatment group, Day 11): 2.8 per day
Mortality rate/day ([5]; Treatment group, Day 16): 5.2 per day
Mortality rate/day ([5]; Treatment group, Day 22): 1.3 per day
Mortality rate/day ([5]; Treatment group, Day 28): 0.8 per day
Mortality % (overall mortality) ([5]; Treatment group, end of 28th day): 3.52%

Reference: US20250185696A1, “NOVEL MENAQUINONE-N (VITAMIN-K2-7) SUPPLEMENTATION FOR LIVESTOCK AND POULTRY” (SYNERGIA LIFE SCIENCES PVT LTD., priority 2022, published 2025)
